One block for each compound: values may come before it. Ends that are not written are not given here. * marks the point of attachment. Myristoyl = CCCCCCCCCCCCCC(=O)*
What was measured:
[1] = target: T1, hBVR and PKC-δ (Homo sapiens, UniProt Q05655); assay: Co-immunoprecipitation of hBVR and PKC-δ (anti-HA); type: cell-based; settings: myristoylated peptide 2 h, then IGF-1, FIG. 9B
T1 construct: The human PKC-δ open reading frame was amplified by PCR from a human brain cDNA library; expressed in transfected cells; host or cells: HEK293A
T1 sequence (Q05655 whole entry): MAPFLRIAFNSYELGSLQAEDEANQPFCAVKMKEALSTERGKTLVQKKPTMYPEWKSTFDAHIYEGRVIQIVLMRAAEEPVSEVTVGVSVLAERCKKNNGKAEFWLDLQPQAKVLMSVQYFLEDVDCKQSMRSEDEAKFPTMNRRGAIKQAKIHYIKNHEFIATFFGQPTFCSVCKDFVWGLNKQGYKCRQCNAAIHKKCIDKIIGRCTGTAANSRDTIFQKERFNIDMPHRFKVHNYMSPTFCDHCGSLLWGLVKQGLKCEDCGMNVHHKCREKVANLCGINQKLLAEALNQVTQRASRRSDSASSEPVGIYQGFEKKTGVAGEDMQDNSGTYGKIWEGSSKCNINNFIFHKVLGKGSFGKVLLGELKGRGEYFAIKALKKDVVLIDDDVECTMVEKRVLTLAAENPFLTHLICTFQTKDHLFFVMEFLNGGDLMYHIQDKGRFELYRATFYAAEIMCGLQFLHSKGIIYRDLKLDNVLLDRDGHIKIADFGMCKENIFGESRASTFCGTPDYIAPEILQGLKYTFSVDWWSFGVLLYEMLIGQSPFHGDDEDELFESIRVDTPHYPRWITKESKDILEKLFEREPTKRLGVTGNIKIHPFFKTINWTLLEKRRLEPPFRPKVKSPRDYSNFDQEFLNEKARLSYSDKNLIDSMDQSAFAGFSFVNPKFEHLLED
Protocol: (§1) Immunoprecipitation was performed on cell lysates prepared as described previously (Lerner-Marmarosh et al., “Regulation of TNF-alpha-Activated PKC-zeta Signaling By the Human Biliverdin Reductase: Identification of Activating and Inhibitory Domains of the Reductase,” FASEB J. 21:3949-3962 (2007), which is hereby incorporated by reference in its entirety). Immunoprecipitates were separated by SDS PAGE, and the proteins blotted to nitrocellulose membrane. The antibodies used for precipitation and for probing the membranes are as described in the specific figure legends.
(§2) Cell Culture, infection, transfection, and co-immunoprecipitation: HEK293A cells were grown and transfected with pcDNA3-HA-hBVR or pcDNA3-PKC-δ plasmids using conditions described elsewhere (Kravets et al., “Biliverdin Reductase, a Novel Regulator for Induction of Activating Transcription Factor-2 and Heme Oxygenase-1,” J. Biol. Chem. 279(19):19916-19923 (2004); Maines et al., “Human Biliverdin Reductase, a Previously Unknown Activator of Protein Kinase C BetaII,” J. Biol. Chem. 282(11):8110-8122 (2007), which are hereby incorporated by reference in their entirety), and overexpression was confirmed by western blotting. […]

[2] = target: T2, PKC-δ and ERK1/2 (Homo sapiens, UniProt P27361+P28482+Q05655); assay: Co-immunoprecipitation of PKC-δ and ERK1/2 (anti-ERK1/2); type: cell-based; settings: myristoylated peptide, IGF-1, FIG. 9D
T2 construct: The human PKC-δ open reading frame was amplified by PCR from a human brain cDNA library; expressed in transfected cells; host or cells: HEK293A (PKC-δ transfected; ERK1/2 endogenous)
T2 sequence (Q05655 whole entry): as above
T2 sequence (P27361 2-379 limits assumed): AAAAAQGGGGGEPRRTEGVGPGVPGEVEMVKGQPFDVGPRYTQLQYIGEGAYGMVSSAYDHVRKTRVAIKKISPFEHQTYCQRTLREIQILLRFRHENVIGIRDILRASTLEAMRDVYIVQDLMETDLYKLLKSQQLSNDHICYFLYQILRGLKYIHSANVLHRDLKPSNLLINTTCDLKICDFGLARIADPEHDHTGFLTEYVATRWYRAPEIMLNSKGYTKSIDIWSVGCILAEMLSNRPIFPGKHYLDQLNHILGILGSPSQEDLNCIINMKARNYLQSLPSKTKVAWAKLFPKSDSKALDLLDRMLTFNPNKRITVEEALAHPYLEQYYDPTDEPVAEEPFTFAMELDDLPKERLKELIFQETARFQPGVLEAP
T2 sequence (P28482 2-360 limits assumed): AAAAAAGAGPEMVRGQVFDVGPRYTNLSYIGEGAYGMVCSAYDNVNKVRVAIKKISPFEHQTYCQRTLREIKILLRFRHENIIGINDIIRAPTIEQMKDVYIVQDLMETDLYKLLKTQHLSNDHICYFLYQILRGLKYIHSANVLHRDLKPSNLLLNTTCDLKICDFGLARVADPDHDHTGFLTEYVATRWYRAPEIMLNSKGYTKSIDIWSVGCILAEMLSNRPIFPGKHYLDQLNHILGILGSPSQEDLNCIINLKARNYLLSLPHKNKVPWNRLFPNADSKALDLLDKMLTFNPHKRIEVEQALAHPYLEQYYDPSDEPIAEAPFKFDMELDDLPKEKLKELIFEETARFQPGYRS
Protocol: as §1, §2

[3] = system: recombinant human PKC-δ; assay: PKC-δ kinase assay in vitro (p81 filter / autoradiography); type: biochemical; settings: for phosphate incorporated into hBVR-derived peptides by PKC-δ: 10 μM peptide, 30 min at 30° C., FIG. 6C; for phosphorylation of variant peptides as PKC-δ substrates: FIG. 4C
Protocol: Measurement of PKC-δ activity: In vitro kinase activity assays were performed with active recombinant human PKC-δ kinase (as a GST fusion protein). PKC-δ assay in vitro was performed using 5 ng purified enzyme in a 50 μl assay containing 50 mM HEPES pH 7.4, 10 mM MgCl2, 0.2 mM DTT, sonicated lipid activators (0.5 μg phosphatidylserine and 0.05 μg diacylglycerol) or lipid activators plus PMA (as indicated in appropriate experiments) and PKC-δ substrates. The reaction was started by the addition of 50 μM ATP labeled with 5 μCi [γ-^32P]-ATP. Incubation was performed for 15 min at 30° C., unless otherwise stated. The reaction was terminated on ice, either by the addition of Laemmli buffer followed by SDS-PAGE, transferred to PVDF membrane, and autoradiography, or by the addition of 1 volume 10% phosphoric acid for p81 transfer as described below. For autophosphorylation of PKC-δ 20 μM ATP was used to start the 40-min reaction.
When hBVR or its mutants were tested for their effect on PKC-δ activity, they were pre-incubated for 5 min at room temperature with the PKC prior to substrate addition. The hBVR-derived peptides were used at concentrations indicated in appropriate figures.
When hBVR or its mutants were assayed as the sole substrates for PKC, the incubation conditions were as described above and the incubation was for 40 min at 30° C. unless specified otherwise. The reaction was terminated by the addition of Laemmli buffer, and the reaction products were detected by SDS-PAGE, transfer to PVDF membrane, and autoradiography.
Measurement of PKC-δ activity: PKC-δ assay in vitro was performed using 0.1 ng/μl purified recombinant human PKC-δ kinase with reaction conditions specified by the manufacturer. Effector molecules such as hBVR or peptides were added 5 min prior to substrate. The reaction was started by the addition of [γ-^32P]-ATP (Lerner-Marmarosh et al., “Human Biliverdin Reductase: A Member of the Insulin Receptor Substrate Family with Serine/Threonine/Tyrosine Kinase Activity,” Proc. Natl. Acad. Sci. U.S.A. 102(20):7109-7114 (2005), which is hereby incorporated by reference in its entirety). Reaction products were detected either by gel electrophoresis and autoradiography or by the p81 filter assay. PKC-δ activity on agarose beads was also measured. Cell lysates were immunoprecipitated with anti-PKC-δ antibody followed by protein A/G agarose. The immunoprecipitates were used in kinase reactions containing 50 μM PKC-δ specific peptide substrate as above; incorporation of ^32P was measured by p81 method.

[4] = target: T3, PKC-δ (Homo sapiens, UniProt Q05655); assay: PKC-δ activity assay in situ in 293A cells; type: cell-based; parameters: The human PKC-δ open reading frame was also cloned in the same vectors; expressed in transfected cells; host or cells: HEK 293A; settings: 20 μM, added 30 min prior to treatment, FIG. 3C
T3 sequence (Q05655 whole entry): as the sequence (Q05655 whole entry) above
Protocol: The PKC-δ activity assay in situ was performed by a modification of procedures detailed by Williams and Schrier (Williams et al., Glucose-Induced Protein Kinase C Activity Regulates Arachidonic Acid Release and Eicosanoid Production by Cultured Glomerular Mesangial Cells,” J. Clin. Invest. 92:2889-2896 (1993), which is hereby incorporated by reference in its entirety). Cells were seeded into 48-well plates and transfected with 0.1 μg/well pcDNA3-hBVR. After 24 h, the medium was replaced with a starvation medium (0.1% serum) and incubation continued for another 24 h to synchronize cells. In some wells, PKC inhibitor Rottlerin (20 μM) was added 30 min before addition of PMA (100 nM) for 15 min. In some wells, hBVR-derived peptides were introduced to cells in their myristoylated form. Cells were washed with medium and incubated for 10 min at 30° C. in 50 μl of kinase assay buffer (137 mM NaCl, 5.4 mM KCl, 10 mM MgCl2, 0.3 mM Na2HPO4, 0.4 mM KH2PO4, 25 mM β-glycerophosphate, 5.5 mM D-glucose, 5 mM EGTA, 1 mM CaCl2, 20 mM HEPES (pH 7.2), 50 μg/ml digitonin, 120 μg/ml of PKC-δ specific substrate (ARRKRKGSFFGG; SEQ ID NO: 52) and 100 μM ATP labeled with 10 μCi/ml [γ-^32P]-ATP). The reaction was stopped with the addition of 25 μl of ice-cold 30% (wt/vol) TCA. The TCA-soluble fraction samples were transferred to p81 phospho-cellulose filters. […]

[5] = target: T3, PKC-δ; assay: PMA-induced PKC-δ membrane translocation, confocal microscopy; type: cell-based; parameters: inserting the open reading frame of PKC-δ into the plasmid pDsRed2-C1; expressed in transfected cells; host or cells: 293A; settings: 10 μM myristoylated peptide, PMA 15 min, FIG. 5E
Protocol: Confocal microscopy: Experimental protocols were based on those described by Edwards et al., “Carboxyl-Terminal Phosphorylation Regulates the Function and Subcellular Localization of Protein Kinase C betall,” J. Biol. Chem. 274:6461-6468 (1999), which is hereby incorporated by reference in its entirety. 293A cells were grown in a chamber slide system (Nalge-Nunc International Corp., Naperville, Ill.). Cells were transfected with pEGFP-hBVR and/or the plasmid expressing Ds2-Red-PKC-δ fusion protein. After a 24 h starvation period, cells were fixed for 10 min in 4% Para-formaldehyde in PBS and permeabilized with 1% Triton X-100 in PBS. The cells were mounted with Vectashield (Vector Laboratories, Inc. Burlingame, Calif.), containing DAPI to visualize the nuclei. Non-transfected cells were permeabilized as above, treated with 1:150 dilution of polyclonal anti-PKC-δ antibodies, washed, blocked, and then treated with polyclonal anti-hBVR antibodies. The PBS-washed cells were then treated with Rhodamine-red-conjugated donkey anti-rabbit IgG antibodies (Jackson ImmunoResearch, West Grove, Pa.) for 30 min, followed by mounting. A Leica TCS SP (model DMRE) confocal microscope was used (Maines et al., “Human Biliverdin Reductase: A Previously Unknown Activator of Protein Kinase C-βII,” J. Biol. Chem. 282:8110-8122 (2007), which is hereby incorporated by reference in its entirety).

Compound: hBVR aa18-23: hBVR-derived peptide containing S21 in consensus PKC phosphorylation motif (RAGSVR; UniProt P53004 18-23, looked up, fragment)
phosphate incorporated into hBVR-derived peptides by PKC-δ [3]: several fold increase

Compound: GLKRNRYLAFHFKSGSL (BVR peptide) [alanine-mutant peptide (hBVR aa222-238), longer alanine-mutant peptide that includes two additional serines]
phosphorylation of variant peptides as PKC-δ substrates [3]: markedly decreased phosphorylation

Compound: GLKRNRYLAFHFK (BVR peptide) [aa222-234 peptide with target serine replaced by alanine]
phosphorylation of variant peptides as PKC-δ substrates [3]: not a substrate

Compound: aa290-296: hBVR-derived peptide containing S294 in consensus PKC phosphorylation motif (KYCCSRK; UniProt P53004 290-296, looked up, fragment)
phosphate incorporated into hBVR-derived peptides by PKC-δ [3]: several fold increase

Compound: CC(=O)c1c(O)c(C)c(O)c(Cc2c(O)c3c(c(C(=O)/C=C/c4ccccc4)c2O)OC(C)(C)C=C3)c1O [Rottlerin, reference compound]
PKC-δ activation by PMA and hBVR in cells overexpressing the kinase [4]: significant reduction

More lines, now with the values ahead:

association between hBVR and PKC-δ, effect of peptide [1]: completely blocked
association of PKC-δ and ERK1/2, effect of peptide [2]: inhibitory
Compound: FGFPAFSG (BVR peptide) [hBVR-derived hydrophobic (C-box) peptide]

phosphorylation of variant peptides as PKC-δ substrates [3]: not a substrate
Compound: GLAANAYLSFHFK (BVR peptide) [second variant of the aa222-234 peptide, upstream lysine and arginine residues replaced by alanine]

association between hBVR and PKC-δ, effect of peptide [1]: slight decrease in binding
association of PKC-δ and ERK1/2, effect of peptide [2]: failed to block
Compound: KKRILHCLGLA (BVR peptide) [hBVR-derived D-box peptide]

PKC-δ translocation to the cell membrane upon PMA [5]: did not significantly affect
inhibition of phosphorylation of the commercial substrate ([3]; 50 μM substrate/10 μM inhibitor, FIG. 5A): clearly differed
Compound: SFHFKSGSL (Myristoyl-SFHFKSGSL) [hBVR-based peptide aa230-238]

From patent US9598677B2, “Use of human biliverdin reductase and fragments thereof for the treatment of protein kinase C-delta and ERK related conditions” (University of Rochester, priority 2009, dated 2017)
